Measured values: PubChem BioAssay AID1745844 (Carcinogenic Potency Database (CPDB), 2022)
Where “and” joins values, the source holds several entries; their conditions need not be identical. Equal values may be shown once. Calls of active or inactive are those of the source. How the calls were made is not given here.

Test system: rodent lifetime carcinogenesis bioassay, tumor incidence TD50
Assay: chronic cancer bioassays in animals – CPDB, compiled studies (AID 1745844)
[1] = mouse, strain CD-1 HaM/ICR, females, in feed, site: any site (literature study), lesion: several types, types named in the paper, dosed 77 weeks, study length 90 weeks
[2] = mouse, strain CD-1 HaM/ICR, females, in feed, site: liver, lesion: several types, types named in the paper, dosed 77 weeks, study length 90 weeks
[3] = mouse, strain CD-1 HaM/ICR, females, in feed, site: lung, lesion: several types, types named in the paper, dosed 77 weeks, study length 90 weeks
[4] = mouse, strain CD-1 HaM/ICR, males, in feed, site: liver, lesion: hepatoma, dosed 77 weeks, study length 90 weeks
[5] = mouse, strain CD-1 HaM/ICR, males, in feed, site: liver, lesion: several types, types named in the paper, dosed 77 weeks, study length 90 weeks
[6] = mouse, strain CD-1 HaM/ICR, males, in feed, site: lung, lesion: several types, types named in the paper, dosed 77 weeks, study length 90 weeks

SMILES: Cc1cccc(N)c1
- TD50 (mouse, strain CD-1 HaM/ICR, females, in feed, site: any site (literature study), lesion: several types, types named in the paper, dosed 77 weeks, study length 81 weeks): 1950 mg/kg/day (inactive)
- carcinogen call [1]: negative (inactive)
- carcinogen call (mouse, strain CD-1 HaM/ICR, females, in feed, site: liver, lesion: several types, types named in the paper, dosed 77 weeks, study length 81 weeks): negative (inactive)
- TD50 [2]: 9990 mg/kg/day (inactive)
- carcinogen call (mouse, strain CD-1 HaM/ICR, females, in feed, site: lung, lesion: several types, types named in the paper, dosed 77 weeks, study length 81 weeks): negative (inactive)
- carcinogen call [3]: negative (inactive)
- TD50 [4]: 1440 mg/kg/day
- TD50 [5]: 6770 mg/kg/day
- carcinogen call [6]: negative (inactive)
- TD50 (rat, strain Charles River CD (Sprague-Dawley), males, in feed, site: any site (literature study), lesion: several types, types named in the paper, dosed 77 weeks, study length 98 weeks): 98.4 mg/kg/day (inactive)
- carcinogen call (rat, strain Charles River CD (Sprague-Dawley), males, in feed, site: liver, lesion: several types, types named in the paper, dosed 77 weeks, study length 98 weeks): negative (inactive)

SMILES: Cc1ccc(N)cc1N
- TD50 (mouse, strain B6C3F1, females, in feed, site: all sites, lesion: leukemia + lymphoma, dosed 101 weeks, study length 101 weeks): 10.6 mg/kg/day
- TD50 (mouse, strain B6C3F1, females, in feed, site: any site (literature study), lesion: several types, types named in the paper, dosed 101 weeks, study length 101 weeks): 8.64 mg/kg/day
- TD50 (mouse, strain B6C3F1, females, in feed, site: liver, lesion: hepatocellular adenoma + hepatocellular carcinoma + neoplastic nodule, dosed 101 weeks, study length 101 weeks): 26.7 mg/kg/day
- TD50 (mouse, strain B6C3F1, females, in feed, site: liver, lesion: hepatocellular carcinoma, dosed 101 weeks, study length 101 weeks): 26.7 mg/kg/day
- TD50 (mouse, strain B6C3F1, males, in feed, site: any site (literature study), lesion: several types, types named in the paper, dosed 101 weeks, study length 101 weeks): 105 mg/kg/day
- TD50 (mouse, strain B6C3F1, males, in feed, site: lung, lesion: alveolar/bronchiolar adenoma + alveolar/bronchiolar carcinoma, dosed 101 weeks, study length 101 weeks): 35.8 mg/kg/day
- TD50 (mouse, strain B6C3F1, males, in feed, site: lung, lesion: alveolar/bronchiolar carcinoma, dosed 101 weeks, study length 101 weeks): 35.8 mg/kg/day (inactive)
- TD50 [1]: 100 mg/kg/day
- TD50 (mouse, strain CD-1 HaM/ICR, females, in feed, site: liver, lesion: hepatoma, dosed 77 weeks, study length 90 weeks): 206 mg/kg/day
- TD50 [2]: 180 mg/kg/day
- TD50 [3]: 72 mg/kg/day (inactive)
- TD50 (mouse, strain CD-1 HaM/ICR, males, in feed, site: all sites, lesion: all vascular tumors, dosed 77 weeks, study length 90 weeks): 317 mg/kg/day
- TD50 [4]: 201 mg/kg/day
- TD50 [5]: 191 mg/kg/day
- carcinogen call [6]: negative (inactive)
- TD50 (rat, strain Charles River CD (Sprague-Dawley), males, in feed, site: any site (literature study), lesion: several types, types named in the paper, dosed 64 weeks, study length 73 weeks): 2.98 mg/kg/day
- TD50 (rat, strain Charles River CD (Sprague-Dawley), males, in feed, site: liver, lesion: hepatoma, dosed 64 weeks, study length 73 weeks): 22.2 mg/kg/day
- TD50 (rat, strain Charles River CD (Sprague-Dawley), males, in feed, site: liver, lesion: several types, types named in the paper, dosed 64 weeks, study length 73 weeks): 26.2 mg/kg/day
- TD50 (rat, strain Charles River CD (Sprague-Dawley), males, in feed, site: subcutaneous tissue, lesion: fibroma, dosed 64 weeks, study length 73 weeks): 5.42 mg/kg/day and 4.42 mg/kg/day
- TD50 (rat, strain Fischer 344, females, in feed, site: any site (literature study), lesion: several types, types named in the paper, dosed 93 weeks, study length 103 weeks): 1.46 mg/kg/day
- TD50 (rat, strain Fischer 344, females, in feed, site: liver + mammary gland, lesion: hepatocellular carcinoma + neoplastic nodule + adenoma + carcinoma, dosed 93 weeks, study length 103 weeks): 1.43 mg/kg/day
- TD50 (rat, strain Fischer 344, females, in feed, site: liver, lesion: hepatocellular adenoma + hepatocellular carcinoma + neoplastic nodule, dosed 93 weeks, study length 103 weeks): 58 mg/kg/day
- TD50 (rat, strain Fischer 344, females, in feed, site: liver, lesion: hepatocellular carcinoma + neoplastic nodule, dosed 93 weeks, study length 103 weeks): 58 mg/kg/day
- TD50 (rat, strain Fischer 344, females, in feed, site: mammary gland, lesion: adenoma + carcinoma, dosed 93 weeks, study length 103 weeks): 5.54 mg/kg/day
- TD50 (rat, strain Fischer 344, females, in feed, site: mammary gland, lesion: adenoma, dosed 93 weeks, study length 103 weeks): 1.46 mg/kg/day
- TD50 (rat, strain Fischer 344, females, in feed, site: mammary gland, lesion: carcinoma, dosed 93 weeks, study length 103 weeks): 8.98 mg/kg/day
- TD50 (rat, strain Fischer 344, females, in feed, site: subcutaneous tissue, lesion: fibroma, dosed 93 weeks, study length 103 weeks): 16.4 mg/kg/day
- TD50 (rat, strain Fischer 344, males, in feed, site: all sites, lesion: mesothelioma, dosed 91 weeks, study length 103 weeks): 6.81 mg/kg/day
- TD50 (rat, strain Fischer 344, males, in feed, site: any site (literature study), lesion: several types, types named in the paper, dosed 91 weeks, study length 103 weeks): 0.991 mg/kg/day
- TD50 (rat, strain Fischer 344, males, in feed, site: liver, lesion: hepatocellular adenoma + hepatocellular carcinoma + neoplastic nodule, dosed 91 weeks, study length 103 weeks): 8.11 mg/kg/day
- TD50 (rat, strain Fischer 344, males, in feed, site: liver, lesion: hepatocellular carcinoma + neoplastic nodule, dosed 91 weeks, study length 103 weeks): 8.11 mg/kg/day
- TD50 (rat, strain Fischer 344, males, in feed, site: subcutaneous tissue, lesion: fibroma, dosed 91 weeks, study length 103 weeks): 2.52 mg/kg/day
- TD50 (rat, strain Fischer 344, males, in feed, site: subcutaneous tissue, lesion: lipoma, dosed 91 weeks, study length 103 weeks): 13.2 mg/kg/day

SMILES: CC(=O)OC1CC(C)CCC1C(C)C (stereo not given) (tested in a mixture with another compound)
- TD50 (mouse, strain CFLP, males, by gavage, site: any site (literature study), lesion: malignant tumor, dosed 80 weeks, study length 104 weeks): 112 mg/kg/day
